Measured values published in US11332483B2, “Naphthoquinone containing gold carbene complexes and methods of uses thereof” (BOARD OF REGENTS, THE UNIVERSITY OF TEXAS SYSTEM, priority 2017, dated 2022).

Legend:
[1] = system: A2780 ovarian (wt-p53, platinum sensitive); test: Cell proliferation (MTT) assay in A2780 ovarian cells; assay type: cell-based; settings: Table 3; error is standard error of the mean
Method: Further anti-proliferation studies were carried out with complex 1 and its naphthoquinone component 4[H][Cl] using the following cell lines: A2780 ovarian (a wt-p53 cell line sensitive to platinum treatment), 2780CP ovarian (isogenic to A2780 but expressing multi-drug resistance (MDR)), and PC-3 prostate (p53 null) (Table 3).
Cells were harvested and seeded into 96-well culture plates (Costar 07-200-90) in 100 μL of culture media. They were allowed to incubate overnight at 37° C. in the presence of 5% CO2. A549 was seeded at a density of 1000 cells/well, A2780 at 2500 cells/well, A2780CP at 3000 cells/well, and PC-3 at 2000 cells/well. The next day, appropriate serial dilutions of drug stocks in culture media were made. To each well of a 96 well plate was added 100 μL of the appropriate solution. After a total of three days, a […] aliquot of 3 mg/mL tetrazolium dye, 344,5-dimethylthiazol-2-yl)-2,5-diphenyltetrazolium bromide (Alfa Aesar L11939) was added to each well, followed by a 4 hr incubation period at 37° C. The medium was then removed, the resulting formazan was dissolved in […] DMSO and the respective absorbances were measured at 560-650 nm using a microplate reader (Molecular Devices, Sunnyvale, Calif.). Absorbance values were corrected for background and then normalized to wells containing untreated cells to allow for plate-to-plate comparisons. […]

A549 lung cancer cells = test: ICP-MS detection of intracellular Au (cellular uptake); settings: A549 cells, in words
Method: Roughly 7−8×10^6 cells were grown to 70-80% confluence in T-75 cell culture flasks (Thermo 130190) and treated with respective compound in RPMI medium supplemented with 10% FBS and antibiotics for the desired incubation time. The medium was then removed and cells were washed with 8 mL 1× warm PBS. 2 mL 1×PBS was then added to each flask, and the cells were removed by scraping. Each cell suspension was then pipetted into a clean, labeled 15 mL centrifuge tube (Thermo 339650). Cells were pelleted by centrifuging at 1,000 rpm for 5 min in an Eppendorf 5804 with a swing-bucket rotor. The supernatant was removed by vacuum aspiration, and the pellet was resuspended in 50 μL autoclaved deionized water. Suspension/lysates were then kept at −80° C. until further use. After thawing, the lysates were then sonicated using a Branson Digital Sonifier, and 5 μL aliquots were taken for determination of protein content of the sample. Lysates were digested with 80 μL aqua regia and heated to 65° C. for 1 h. Digested lysates were diluted with 4 mL 3% Trace Metal Grade HCl and gold content was measured on a Perkin Elmer NexION 300× set to detect gold at 197 m/z. Gold concentrations were quantified using the linear range of a standard curve generated by serial dilution of an ICP-MS gold standard (Ricca MSAU1KH-100) in 3% HCl. Values were then normalized to protein content as determined using a Modified Lowry Protein Assay Kit (Thermo 23240) and known concentrations of bovine serum albumin (Fisher 9048-46-8).
The Modified Lowry Assay was used to determine the protein content of each sample for normalization purposes. The standard curve for each run was made from a 2-fold serial dilution of fresh 5 mg/mL BSA solution. Aliquots were diluted to within the linear range of the standard curve using autoclaved DI water, and subjected to the Modified Lowry Assay in round-bottomed 96-well clear plates (Fisher 12565500). […] All other aspects of the procedure were as detailed in the microplate procedure instructions that come with the kit.

[2] = system: A549 lung cancer cell xenografts in zebrafish; settings: 0.5 μM, bright field images
Method: First, zebrafish embryos were divided into 7 groups at an average of 65 embryos per group. […] Briefly, live human lung cancer cells (A549) were labeled with CM-DiI (red) and only live cells were transplanted via injection into the perivitelline space of 30 zebrafish embryos 24 hours post fertilization (hpf) (Sittaramane et al., 2015; Veinotte et al., 2014; Xie et al., 2015). Tumor inoculated zebrafish embryos were allowed to grow for one day till 48 hpf. This allows for establishment of the cancer cells in the host zebrafish embryos.

Cc1cc(C)c(-n2c3c([n+](-c4c(C)cc(C)cc4C)[c]2[Au-][c]2n(-c4c(C)cc(C)cc4C)c4c([n+]2-c2c(C)cc(C)cc2C)C(=O)c2ccccc2C4=O)C(=O)c2ccccc2C3=O)c(C)c1.[Cl][Ag-][Cl] [Compound 1, [Bis(1,3-dimesityl-4,5-naphthoquino-imidazol-2-ylidene)-gold(I)] [Silver(I)dichloride]]
IC50 [1]: 26 ± 7 nM | intracellular Au levels (ICP-MS) (A549 lung cancer cells): identical | non-specific cell death in the developing zebrafish larvae [2]: no non-specific cell death
